In US20220372542A1, “DETECTION OF ANALYTES BY PROTEIN SWITCHES” (priority 2019, published 2022):

How the values were obtained:
[1] = molecular target: glucose dehydrogenase protein switch GDH-2004, GDH-105 variant (Bacillus subtilis, UniProt P12310); test: screen of GDH variants for glucose activity against analytes; assay type: biochemical
Description: (§1) Glucose dehydrogenase (GDH) variant libraries comprising GDH polypeptides developed using GDH-105 (Codexis, Redwood, Calif.) as a backbone were prepared. Approximately 2800 GDH variants were prepared. Glucose activity was determined by either NADH kinetic assay using a spectrophotometer set at UV 340 or UV 360 at various time intervals or by endpoint measurement of gluconic acid using RapidFire mass spectrometer.

[2] = molecular target: glucose dehydrogenase protein switch GDH-2005, GDH-105 variant (Bacillus subtilis, UniProt P12310); test: as above; assay type: biochemical; conditions: cortisol 2.08 mM, pH 7.5, NADH kinetics at UV340
Description: as §1

[3] = molecular target: glucose dehydrogenase protein switch GDH-2009, GDH-105 variant (Bacillus subtilis, UniProt P12310); test: as above; assay type: biochemical
Description: as §1

[4] = molecular target: glucose dehydrogenase protein switch GDH-2010, GDH-105 variant (Bacillus subtilis, UniProt P12310); test: as above; assay type: biochemical; conditions: methotrexate 5.42 mM, pH 7.0, gluconic acid by RapidFire MS
Description: as §1

[5] = molecular target: glucose dehydrogenase protein switch GDH-2008, GDH-105 variant (Bacillus subtilis, UniProt P12310); test: as above; assay type: biochemical; conditions: methotrexate 5.42 mM, pH 7.0, gluconic acid by RapidFire MS
Description: as §1

[6] = molecular target: glucose dehydrogenase protein switch GDH-2007, GDH-105 variant (Bacillus subtilis, UniProt P12310); test: as above; assay type: biochemical; conditions: methotrexate 5.42 mM, pH 7.0, gluconic acid by RapidFire MS
Description: as §1

[7] = molecular target: T1, glucose dehydrogenase protein switch GDH-2016 (Rd2bb), GDH-105 variant, SEQ ID NO: 11 (Bacillus subtilis, UniProt P12310, A159T/E170K/E96C/F155A/I165M/P194T/Q252L/V156S); test: biochemical; conditions: read-out: inhibition at 300 uM warfarin
T1 construct: electrode sensor and screen
Description: (§2) Experimental GDH-105 and GDH-2016 glucose-responsive active areas were prepared using a single-layer active area system. The GDH was obtained from Codexis, Redwood City, Calif. The active area was coated onto a carbon working electrode in a single layer composition (Table 8). Following deposition of the active area, the active area was cured for three days at RT.
(§3) Experimental procedure. Testing of the GDH-105 and GDH-2016 sensors was conducted by immersing the electrode in a 100 mM PBS buffer solution at 33° C. NAD^+ (5 mM) supplied to a test beaker containing PBS buffer followed by the addition of glucose (1 mM).

[8] = molecular target: glucose dehydrogenase protein switch GDH-2027, variant of GDH-2025, C96F; A173G, SEQ ID NO: 12 (Bacillus subtilis, UniProt P12310, A159T/A173G/E170K/E96F/F155A/I165M/P194T/Q252L/V156S); test: warfarin inhibition of evolved GDH sensors (Table 13); assay type: biochemical; conditions: NAD+ 10 mM, glucose 5 mM, 100 mM PBS, 33° C.
Description: (§4) Evolved Warfarin sensors. GDH-105, GDH-2016, GDH-2025, GDH-2026, GDH-2027, and GDH-2028 glucose-responsive active areas were prepared using a single-layer active area system. The GDH was obtained from Codexis, Redwood City, Calif. The active area (0.33 mm^2) was coated onto a carbon working electrode in a single layer composition (Table 8). Following deposition of the active area, the active area was cured for three days at room temperature.
(§5) Experimental procedure. Testing of the GDH-105, GDH-2016, GDH-2025, GDH-2026, GDH-2027, and GDH-2028 sensors was conducted by immersing the electrode in a 100 mM PBS buffer solution at 33° C. NAD^+(10 mM) supplied to a test beaker containing PBS buffer followed by the addition of glucose (5 mM).

[9] = molecular target: glucose dehydrogenase protein switch GDH-2025 (Rd3bb), variant of GDH-2016, C96F, SEQ ID NO: 1 (Bacillus subtilis, UniProt P12310, A159T/E170K/E96F/F155A/I165M/P194T/Q252L/V156S); test: as above; assay type: biochemical; conditions: NAD+ 10 mM, glucose 5 mM, 100 mM PBS, 33° C.
Description: as §4, §5

[10] = molecular target: glucose dehydrogenase protein switch GDH-2026, variant of GDH-2016, C96F; I141V, SEQ ID NO: 7 (Bacillus subtilis, UniProt P12310, A159T/E170K/E96F/F155A/I141V/I165M/P194T/Q252L/V156S); test: as above; assay type: biochemical; conditions: NAD+ 10 mM, glucose 5 mM, 100 mM PBS, 33° C.
Description: as §4, §5

[11] = molecular target: T2, glucose dehydrogenase GDH-105 (control, backbone) (Bacillus subtilis, UniProt P12310, E198G/I165M/P194T); test: as above; assay type: biochemical; conditions: NAD+ 10 mM, glucose 5 mM, 33° C.
Description: as §4, §5

[12] = molecular target: glucose dehydrogenase protein switch GDH-2028 (Rd4bb), variant of GDH-2025, C96F; L252V, SEQ ID NO: 15 (Bacillus subtilis, UniProt P12310, A159T/E170K/E96F/F155A/I165M/P194T/Q252V/V156S); test: as above; assay type: biochemical; conditions: NAD+ 10 mM, glucose 5 mM, 100 mM PBS, 33° C.
Description: as §4, §5

[13] = molecular target: T1, glucose dehydrogenase protein switch GDH-2016 (Rd2bb), GDH-105 variant, SEQ ID NO: 11; assay type: biochemical; conditions: warfarin 2.08 mM, pH 7.0, NADH kinetics at UV360
Description: as §1

[14] = molecular target: glucose dehydrogenase protein switch GDH-2013, GDH-105 variant (Bacillus subtilis, UniProt P12310); test: screen of GDH variants for glucose activity against analytes; assay type: biochemical; conditions: warfarin 2.08 mM, pH 7.0, NADH kinetics at UV360
Description: as §1

[15] = molecular target: T2, glucose dehydrogenase GDH-105 (control, backbone); test: warfarin inhibition of GDH sensor (FIGS. 9A and 9B); assay type: biochemical; conditions: 10, 30, 80, 180, and 300 uM warfarin; NAD+ 5 mM, glucose 1 mM, 33° C.
Description: as §2, with “Warfarin Sensor. Experimental” for “Experimental”
as §3

[16] = methotrexate 5.42 mM, pH 7.0, gluconic acid by RapidFire MS
[17] = warfarin 2.08 mM, pH 7.0, NADH kinetics at UV360

C[C@]12CCC(=O)C=C1CC[C@@H]1[C@@H]2[C@@H](O)C[C@@]2(C)[C@H]1CC[C@]2(O)C(=O)CO [Cortisol]
Activate/Inhibit (glucose activity) ([1]; cortisol 2.08 mM, pH 7.5, NADH kinetics at UV340): Inhibit | Activate/Inhibit (glucose activity) [2]: Inhibit

CN(Cc1cnc2nc(N)nc(N)c2n1)c1ccc(C(=O)N[C@@H](CCC(=O)O)C(=O)O)cc1 [Methotrexate]
Activate/Inhibit (glucose activity) [3, 16]: Inhibit | Activate/Inhibit (glucose activity) [4]: Inhibit | Activate/Inhibit (glucose activity) [1, 16]: Inhibit | Activate/Inhibit (glucose activity) [5]: Inhibit | Activate/Inhibit (glucose activity) [6]: Inhibit

CC(=O)CC(c1ccccc1)c1c(O)c2ccccc2oc1=O (stereo not shown) [Warfarin, warfarin]
inhibition at 300 µM [7]: ~55% | GDH inhibition at 0.3 mM WF [8]: 79% | GDH inhibition at 0.3 mM WF [9]: 79% | GDH inhibition at 0.3 mM WF [10]: 78% | GDH inhibition at 0.3 mM WF ([11]; 0.3 mM WF, 100 mM PBS): 5% | inhibition to increasing warfarin concentrations ([11]; 10, 30, 80, 180, and 300 uM warfarin): remained unaffected | GDH inhibition at 0.3 mM WF [12]: 84% | Activate/Inhibit (glucose activity) [13]: Inhibit | Activate/Inhibit (glucose activity) [3, 17]: Inhibit | Activate/Inhibit (glucose activity) [14]: Inhibit | Activate/Inhibit (glucose activity) [1, 17]: Inhibit | inhibition of the sensor to increasing warfarin concentrations [15]: not affected
